The values below come from PubChem BioAssay (NCI).

SMILES strings stand for the structures.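 Where inhibition never reached the appropriate level, the endpoint shown equals the highest concentration tested. Otherwise, values were interpolated linearly from a five-concentration, 48-hour dose response in 96-well plates. The concentration for 50% growth inhibition is given as GI50. TGI marks complete inhibition of growth.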

Holding throughout (assay): NCI-60 cell line screen, 48 h
The test system of assay [1] is COLO 205 colon.
In assay [2] the test system is RPMI-8226 leukemia.
Assay [3] concerns TK-10 renal.
The test system of assay [4] is HCC-2998 colon.
Assay [5] relates to A549 NSCLC.
The subject of assay [6] is SW-620 colon.
Assay [7] concerns SK-OV-3 ovarian.
In assay [8] the test system is NCI-H522 lung.
Assay [9] relates to OVCAR-8 ovarian.
Assay [10] relates to SF-295 CNS.

Consider `C=C1CC[C@@H](C(C)C)C[C@@H]2[C@H]([C@H](O)C[C@]2(C)O)[C@@]2(C)CC[C@@H]1O2`, for which the GI50 is 20 µM in [1]; 3.38 µM in [2]; 21.7 µM in assay [3]; 13.9 µM in assay [4]; 17 µM in [5]; 20.6 µM in assay [6]. For the same molecule, the GI50 in [7] was 20.2 µM; in assay [8], 15.2 µM; in assay [9] it was 21.4 µM; in assay [10], 14.7 µM. For the same molecule, the TGI in assay [1] turned out to be 34.9 µM; in assay [2], 17.2 µM; in assay [3], 43.7 µM; in assay [4], 26.9 µM; in assay [5] it was 32.7 µM; in [6], 39.9 µM. For the same molecule, the TGI in assay [7] came to 38 µM; in assay [8], 29.8 µM; in assay [9], 46.4 µM; in assay [10] it was 32.3 µM.
`CC1=C(C(=O)NNS(=O)(=O)c2ccc(C)cc2)CC(C(=O)NNS(=O)(=O)c2ccc(C)cc2)=C(C)N1`: the TGI in [1], in [2], in assay [3], in assay [4], in assay [5] and in assay [6] was more than 100 µM throughout. Further, the TGI in assay [7], in assay [8], in assay [9] and in assay [10] was more than 100 µM in each case.
Consider `COc1ccc2c(Oc3ccc(NC(=O)c4c(C)n(CC(C)(C)O)n(-c5ccccc5)c4=O)nc3)ccnc2c1`, for which the GI50 in assay [1] was more than 73.4 µM; in [2], 10.7 µM; in [3], 5.92 µM; in [4], 34 µM; in [5], 20.3 µM; in assay [6], 34.2 µM. For the same molecule, the GI50 was 6.06 µM in assay [7], 6.84 µM in assay [8], 9.48 µM in [9] and 0.654 µM in assay [10]. For the same molecule, the TGI in assay [1] is more than 100 µM; in assay [2], more than 79.3 µM; in assay [3], 19.8 µM; in [4] it was more than 100 µM; in assay [5], more than 100 µM; in assay [6], more than 100 µM. The TGI was more than 80.8 µM in assay [7], 26.7 µM in [8], more than 100 µM in assay [9] and 12.7 µM in [10].
As for `NC(=S)N/N=C/c1cc(-c2cccc(N)c2)ccn1`, the GI50 in [1] is 3.41 µM; in assay [2] it was 0.446 µM; in assay [3], 1.2 µM; in assay [4], 2.2 µM; in [5], 3.11 µM; in [6], 3.45 µM. Further, the GI50 in assay [7] is 3.29 µM; in assay [8] it was 0.202 µM; in [9], 1.66 µM; in [10], 1.66 µM. Further, the TGI is more than 100 µM in assay [1]; 28.7 µM in [2]; 44 µM in assay [3]; more than 43.5 µM in assay [4]; more than 51.3 µM in assay [5]; more than 81.8 µM in assay [6]. Moreover, the TGI was more than 93.8 µM in assay [7], 0.564 µM in assay [8], more than 67.9 µM in assay [9] and 31 µM in assay [10].
Regarding `COC(=O)CCC1=C(CC(=O)OC)C(C)=N/C1=C\c1[nH]c(-c2ccc[nH]2)cc1OC`, the GI50 was 3.79 µM in assay [1]; 1.44 µM in [2]; 3.58 µM in [3]; 3.46 µM in assay [4]; 3.34 µM in assay [5]; 3.63 µM in assay [6]. For the same molecule, the GI50 in assay [7] is 13.3 µM; in assay [8], 1.81 µM; in assay [9] it was 2.92 µM; in [10], 3.25 µM. Also, the TGI in [1] stood at 16.3 µM; in assay [2], 4.91 µM; in [3], 16.6 µM; in assay [4], 15.6 µM; in [5] it was 13 µM; in assay [6], 18 µM. The TGI in assay [7] came out at 28.4 µM; in assay [8], 3.97 µM; in [9], 11.4 µM; in [10] it was 15.1 µM.
For the molecule `O=C(OCC(OC(=O)c1ccccc1)C(OC(=O)c1ccccc1)C(OC(=O)c1ccccc1)c1cnn(-c2ccccc2)n1)c1ccccc1` (stereo not given), the TGI in assay [1], in assay [2], in [3], in [4], in assay [5] and in assay [6] was more than 100 µM in each case. In addition, the TGI in assay [7], in [8], in assay [9] and in [10] was more than 100 µM each time.
For `Cc1nn(C(=O)c2ccc(Cl)cc2)c2c1C(c1ccc(O)cc1)SC(N)=N2` (stereo not given), the TGI in [1], in [2], in [3], in assay [4], in [5] and in assay [6] was more than 10 µM each time. Moreover, the TGI in assay [7], in assay [8], in assay [9] and in [10] was more than 10 µM each time.
